The text below walks through data of patent publication US9926293B2, “Multivalent RAS binding compounds” (THE TRUSTEES OF COLUMBIA UNIVERSITY IN THE CITY OF NEW YORK, priority 2014, dated 2018).

Structures are written as SMILES. pKd: −log10 of the molar value.

The target of one test is T1, GTP-loaded KRAS G12D (Homo sapiens, UniProt P01116, G12D).
T1 construct: made in house; host or cells: Escherichia coli BL21-Gold (DE3)
The test is described as follows: Microscale thermophoresis, GTP-loaded KRAS G12D labeled with NT-647-maleimide. In kind it is binding. Conditions: read-out: dissociation constant KD. Here is the method: Microscale Thermophoresis
KRAS^G12D (250 μM) in 25 mM HEPES, 100 mM sodium chloride, 2 mM TCEP with 20 mM EDTA and 1 mM GppNHp was shaken at 220 rpm at 30° C. to remove the endogenous nucleotide, The solution was placed on ice for 2 minutes prior to the addition of 65 mM MgCl2. […] The protein/dye mixture was rotated at 4° C. for 30 minutes, before being separated from the excess dye and buffer exchanged into 25 mM Tris, 100 mM sodium chloride, 2 mM TCEP, and 5 mM MgCl2 via a nap-5 column. The test compounds were arrayed across a 16-point dilution series consisting of 1.5% DMSO with 25 mM Tris, 100 mM NaCl, 2 mM TCEP, 5 mM MgCl2 and 0.05% tween-20. Thermophoretic movement of the fluorescently labeled protein with the inhibitors was performed using a Monolith NT.115 (Nanotemper Technologies). RALA and RHOA were purchased commercially from Abcam (RALA CN:ab102555, RHOA CN:ab101594).
(§1) A set of 45 of the closest matches (ranging from 0.85-0.97 Tanimoto coefficient) were synthesized (based on Scheme 2 with appropriate modifications) and tested for their ability to bind to KRAS^G12D by differential scanning fluorimetry.
On the technique in general: Microscale thermophoresis detects binding through changes in fluorescence in a small temperature gradient.

A further test addresses T2, KRAS^G12D D38A (Homo sapiens, UniProt P01116, D38A/G12D).
T2 construct: His6 (N); made in house
Briefly: Microscale thermophoresis on binding-site mutant KRAS^G12D D38A. Here is the method:
(§2) Mutagenesis of the KRAS^G12D plasmid was performed using a QuikChange XL site-directed mutagenesis kit from Agilent technologies, according to the manufacturer's protocol. Primers were designed using the Agilent QuikChange Primer Design application and purchased from Integrated DNA Technologies. KRAS^G12D D38A forward primer 5′ ATATGATCCAACAATAGAGGCTTCCTACAGGAAGCAAGTAG 3′ (SEQ ID NO: 66), KRAS^G12D D38A reverse primer 5′ CTACTTGCTTCCTGTAGGAAGCCTCTATTGTTGGATCATAT 3′ (SEQ ID NO: 67), KRAS^G12D I36N forward primer 5′ CATTTTGTGGACGAATATGATCCAACAAATGAGGATTCCTACAGG 3′ (SEQ ID NO: 68), KRAS^G12D I36N reverse primer 5′ CCTGTAGGAATCCTCATTTGTTGGATCATATTCGTCCACAAAATG 3′ (SEQ ID NO: 69). DNA sequencing was performed to confirm the correct amino acid sequence of the construct (GeneWiz, Inc.).
(§3) KRAS^G12D (250 μM) in 25 mM HEPES, 100 mM sodium chloride, 2 mM TCEP with 20 mM EDTA and 1 mM GppNHp was shaken at 220 rpm at 30° C. to remove the endogenous nucleotide, The solution was placed on ice for 2 minutes prior to the addition of 65 mM MgCl2. After an additional 10 minutes incubation on ice, 200 uL of a 10 uM solution of KRAS^G12D was combined with 200 uL of a 20 uM solution of NT-647-NHS-ester dye (from a 652.4 μM stock). The protein/dye mixture was rotated at 4° C. for 30 minutes, before being separated from the excess dye and buffer exchanged into 25 mM Tris, 100 mM sodium chloride, 2 mM TCEP, and 5 mM MgCl2 via a nap-5 column. The test compounds were arrayed across a 16-point dilution series consisting of 1.5% DMSO with 25 mM Tris, 100 mM NaCl, 2 mM TCEP, 5 mM MgCl2 and 0.05% tween-20. Thermophoretic movement of the fluorescently labeled protein with the inhibitors was performed using a Monolith NT.115 (Nanotemper Technologies). RALA and RHOA were purchased commercially from Abcam (RALA CN:ab102555, RHOA CN:ab101594).
as §1

A further test addresses T3, KRAS^G12D I36N (Homo sapiens, UniProt P01116, G12D/I36N).
T3 construct: His6 (N); made in house
Briefly: Microscale thermophoresis on binding-site mutant KRAS^G12D I36N. Conditions: MST, 31MEW79 experiment of b434. Here is the method: as §2
as §3, with “CN:ab101594). […]” for “CN:ab101594).”

The next test deals with T4, GppNHp-bound KRAS^G12D (Homo sapiens, UniProt P01116, G12D).
T4 construct: made in house; host or cells: Escherichia coli BL21-Gold (DE3)
Briefly: Binding to KRAS and measurement of dissociation constants (FIG. 4B-4C), GppNHp-bound. The following applies: read-out: dissociation constant KD.

In a further test the target is T5, GDP-bound KRAS^G12D (Homo sapiens, UniProt P01116, G12D).
T5 construct: made in house; host or cells: Escherichia coli BL21-Gold (DE3)
The test is described as follows: Binding to KRAS and measurement of dissociation constants (FIG. 4B-4C), GDP-bound. Conditions: read-out: dissociation constant KD.

In another test the target is T6, KRAS^G12D⋅BODIPY-GTP (Homo sapiens, UniProt P01116, G12D).
T6 construct: made in house; host or cells: Escherichia coli BL21-Gold (DE3)
Briefly: Nucleotide displacement assay with BODIPY-GTP (fluorescence polarization). The class given is binding. Conditions: 2.5 μM KRAS^G12D⋅BODIPY-GTP, 12 hours. Here is the method: Nucleotide Displacement Assay
To investigate whether compounds were binding to the same site as GTP, a fluorescent polarization assay was implemented using fluorescently-labeled BODIPY-GTP as a probe. When BODIPY-GTP is free in solution, it has a low polarization. However, when BODIPY-GTP is bound to K-Ras protein, the polarization intensity is high. K-Ras G12D bound to BODIPY-GTP was incubated with different concentrations of ligand or unlabeled GTP or GDP in buffer containing 25 mM Tris-HCl, pH 8, 100 mM NaCl, 5 mM MgCl2, 1 mM EDTA, and 1 mM TCEP. The final concentration of K-Ras G12D bound to BODIPY-GTP in each well was 2.5 μM. The samples were incubated at 25° C. for 12 hours with gentle shaking to allow for the slow intrinsic nucleotide release reaction to take place. The change in fluorescence was measured on a Victor3 plate reader (Perkin Elmer) in 384-well black low-volume plates (Corning, Inc.). The BODIPY-GTP fluorophore was excited at 485 nm and emission was monitored at 535 nm.
In general terms: In fluorescence polarisation assays a small probe gives low polarisation when free and higher when bound to something large.

Test [1] concerns the target T7, GTP-loaded KRAS^G12D / CRAF RBD interaction (Homo sapiens, UniProt P01116, G12D).
T7 construct: made in house; host or cells: Escherichia coli BL21-Gold (DE3)
The test is described as follows: In vitro RAS pulldown with CRAF RBD. Conditions: in vitro pull-down. In kind it is biochemical. Here is the method:
A 20 μM solution of KRAS^G12D in 50 mM HEPES, 200 mM sodium chloride, 2 mM TCEP with 1 mM EDTA and 1 mM GTP was gently rotated at 25° C. to remove the endogenous nucleotide. Magnesium chloride was then added to 5 mM and the resulting solution was rotated at 4° C. for 4 hours. The GTP-loaded KRAS^G12D was then diluted to 20 nM and incubated with the inhibitors and 5 μL of CRAF-RBD agarose beads (Millipore), 10 μL of RAF1-RBD agarose beads (EMD Millipore, CN: 14-278), or 100 nM RALGDS (Abcam, CN: ab132590) with 20 μL of glutathione beads for 2 hours. The beads were separated from the lysate via a 0.1 μm filter spin cup and centrifuging at 14,000-15,000 rpm. They were then washed twice with PBS before the addition of 1×SDS. The quantity of RAS in the samples was then analyzed using the previously described Western blotting procedure.
as §1

As usually defined, the pKd is the Kd on a negative log10 scale, so that one unit is a factor of ten. Take `NCCC[C@@H](NC(=O)CN1CCCNCC1)C(=O)NC1Cc2ccccc2C1` [Compound 31MEW79, (R)-2-(2-(1,4-diazepan-1-yl)ethanamido)-5-amino-N-(2,3-dihydro-1H-inden-2-yl)pentanamide]: the pKd on GTP-loaded KRAS G12D is 4.48; at KRAS^G12D D38A (MST, 31MEW79 experiment of b434) it was 4.08; at KRAS^G12D I36N, 4.33; at GppNHp-bound KRAS^G12D it was 2.42; on GDP-bound KRAS^G12D it was 2.15. This molecule also displayed a loss in affinity on KRAS^G12D D38A (KRAS^G12D D38A and I36N vs KRAS^G12D) of 1.5 to 3.0 fold. In addition, the “displacement of BODIPY-GTP” value on KRAS^G12D⋅BODIPY-GTP is recorded as “No displacement”. In test [1], the “CRAF-bound KRAS^G12D” value is “dose-dependent decrease”.
